{"source": "patent US8609347B2", "about": "“Biomarkers for prenatal diagnosis of congenital cytomegalovirus” (priority 2007, dated 2013)", "format_in_all_cases": "cell-based, human", "key": {"CEACAM1": {"test_system": "CEACAM1", "assay": "CEACAM1 expression by flow cytometry in HUVEC", "details": "treatment with antioxidants; ratios of mean fluorescence intensity to control cells", "excerpt": "FIG. 6A-D: CEACAM protein increases in CMV-infected HUVEC. (A) (Left panel) Flow cytometric analysis of CEACAM1 surface expression. Typical histograms from control and infected human umbilical vein endothelial cells (HUVEC) are shown. Shaded areas represent expression of specific proteins, and lines represent isotype control. (Middle panel) Graphs represent mean fluorescence intensity (mean±SE). Statistically significant differences are indicated (*p<0.05, **p<0.001). (Right panel) VR1814-infected HUVEC increase intracellular CEACAM1 protein. Permeabilized cells were analyzed by flow cytometry. Shaded areas represent expression of specific proteins; lines represent isotype control. (B) CEACAM1 levels in conditioned medium measured by ELISA. Polyclonal and biotinylated CEACAM1-specific IgG (R&D Systems) were used for coating and detection, respectively. CEACAM1 was quantified with peroxidase-conjugated streptavidin. CEACAM1 concentration increased in conditioned medium from infected HUVEC (1 PFU/cell). Graphs represent mean value±SE (n=4). Statistically significant differences are indicated (*p<0.05). (C) Infected HUVEC and controls were immunostained for CEACAM1 and CMV gB. Please Note: cells without viral proteins express CEACAM1. […] Ratios of the mean fluorescence intensity were obtained with control cells."}, "[1]": {"test_system": "TGF-β1 activation in CMV-infected HUVECs", "assay": "TGF-β bioassay: TMLC TGF-β reporter cells co-cultured with CMV-infected HUVECs, luciferase activity", "details": "7 days after infection; Foscarnet 400 μmol/L or phosphonoacetic acid 100 μg/ml", "excerpt": "FIG. 18: Integrin αvβ6-dependent TGF-β1 activation in CMV-infected HUVECs. A: TGF-β1 production by infected HUVECs. Conditioned medium was collected from control (open circles) and infected (filled circles) HUVECs at 1 to 9 days, and TGF-β1 was quantified by enzyme-linked immunosorbent assay. Results are the mean (±SE) of three experiments done in duplicate. Asterisks indicate the amount of TGF-β1 in infected HUVECs as compared with uninfected controls (*P<0.05, **P<0.01). B: Surface expression of TGF-β1 in HUVECs was analyzed by flow cytometry at 3, 7, and 10 days after infection and controls (cont). Typical histograms are shown. Shaded areas represent expression of specific proteins. Lines represent isotype control. Experiments were repeated at least three times. C: Total TGF-β1 was analyzed by flow cytometry using permeabilized cells at 3, 7, and 10 days after infection (inf.) and controls (cont). Left: Typical histograms at 10 days are shown. Shaded areas represent expression of specific proteins. Lines represent isotype control. Right: Results are the mean fluorescence intensity (±SE) of three experiments. Asterisks indicate expression in infected HUVECs as compared with uninfected controls (*P<0.05). D: TGF-β bioassay of active TGF-β produced by infected HUVECs. […] Relative luciferase activity in cell lysates was defined as the measured activity divided by TMLC baseline activity. […]"}, "integrin β6": {"test_system": "integrin β6", "assay": "Surface expression of integrin αvβ6 by flow cytometry in CMV-infected HUVECs", "details": "7 days, SB431542 0.1 to 1 μmol/L, Foscarnet 400 μmol/L, phosphonoacetic acid 100 μg/ml", "description": "FIG. 20: Induction of integrin αvβ6 expression requires TGF-β signaling and viral DNA replication A: Infected HUVECs were cultured with or without chicken anti-TGF-β polyclonal antibody (20 μg/ml), chicken IgY isotype control antibody (control Ab, 20 μg/ml), the ALK5 kinase inhibitor SB431542 (0.5 μmol/L), or the vehicle DMSO for 7 days, and surface expression of integrin αvβ6 was analyzed by flow cytometric analysis. Typical histograms are shown. Shaded areas represent expression of specific proteins. Lines represent isotype control. Experiments were repeated at least two times. B: Surface expression of integrin αvβ6 was analyzed by flow cytometric analysis at 7 days after infection with or without viral DNA polymerase inhibitors, Foscarnet, and phosphonoacetic acid (PAA). Typical histograms are shown. Shaded areas represent expression of specific proteins. Lines represent isotype control. Experiments were repeated six times. C: Active TGF-β was not produced by infected HUVECs in the presence of viral DNA polymerase inhibitors. Equal numbers of TMLC TGF-β reporter cells and control (cont.) or infected HUVECs were cultured for 16 to 24 hours at 7 days after infection. Relative luciferase activity in cell lysates was defined as the measured activity divided by TMLC baseline activity. Representative data (mean±SE) are from four experiments done in triplicate.\nThe present example assesses how integrin β6 is induced on CMV infection in HUVECs. It has been reported that TGF-β1 induces de novo synthesis of integrin β6 in normal human keratinocytes (Zambruno et al., J Cell Biol, 129:853-865 (1995)) and strongly up-regulates its expression in primary cultures of human airway epithelial cells (Wang et al., Am J Respir Cell Mol Biol, 15:664-672 (1996)). […] HUVECs were cultured with the filtered conditioned medium for 8 days, and expression of integrin β6 was analyzed. […] It was then determined whether viral late gene expression is required for the up-regulation of integrin β6 in infected cells because the expression was observed only at late times after infection. […]"}, "Smad3 phosphorylation": {"test_system": "Smad3 phosphorylation", "assay": "Smad3 phosphorylation by immunoblot in CMV-infected HUVECs", "details": "8-day infected HUVECs; 1D11 40 μg/ml, 3G9 80 μg/ml, SB431542 2.5 μmol/L", "description": "FIG. 19: CMV-infected HUVECs induce Smad3 phosphorylation. Cell lysates from control (cont.) or infected (inf.) HUVECs at 3, 7, and 10 days after infection were fractionated by 10% SDS-PAGE and blotted on nitrocellulose. Phosphorylation of Smad3 (pSmad3) and Smad1/5 (pSmad1/5) was analyzed by immunoblotting using phospho-specific Smad3 and Smad1/5/8 (pSmad1/5) antibodies. Equal loading of the gels was confirmed using Smad2/3, Smad1, and Smad5 protein levels. B: Effects of anti-TGF-β antibody, anti-αvβ6 antibody (3G9), and ALK5 kinase inhibitor on Smad3 phosphorylation. […]\nActivated TGF-β1 can bind the type I receptors ALK1 and ALK5, which then phosphorylate the transcriptional activators Smad1/5 and Smad2/3, respectively (ten Dijke, P. and Hill, C. S., Trends Biochem Sci, 29:265-273 (2004)). To determine which of these TGF-β1 signaling pathways is activated in CMV-infected HUVECs, Smad1/5 and Smad3 phosphorylation was analyzed by immunoblotting with antibodies specific to Smads and their phosphorylated forms (FIG. 19A). Smad3 phosphorylation was strongly detected in 7- and 10-day-infected cells. […] Phosphorylated Smad1/5 was also weakly detected in the control. […]"}, "type IV collagen": {"test_system": "type IV collagen", "assay": "Type IV collagen expression (flow cytometry, immunoblot) in CMV-infected HUVECs", "details": "infected HUVECs treated for 7 days", "description": "FIG. 22: Increased type IV collagen synthesis by CMV infection was blocked by anti-TGF-β and anti-αvβ6 neutralizing antibodies. A: Surface expression of type IV collagen was analyzed by flow cytometric analysis at 10 days after infection. Typical histograms from control (cont.) and infected (inf.) HUVECs are shown. Shaded areas represent expression of specific proteins. Lines represent isotype control. B: The results represent the mean fluorescence intensity of type IV collagen (mean±SE) from three to seven experiments. Asterisks indicate surface expression in infected HUVECs as compared with uninfected controls (*P<0.01). C: Cell lysates from control (cont.) or infected (inf.) HUVECs at 3, 7, and 10 days after infection were fractionated by 8% SDS-PAGE and blotted on nitrocellulose. Filters were incubated with anti-type IV collagen (Col IV) and anti-actin (loading control) antibodies. D: Surface expression of type IV collagen was analyzed by flow cytometric analysis at 7 days without antibody (untreated) or with anti-TGF-β neutralizing antibody (1D11), function-blocking anti-αvβ6 antibody (3G9), or mouse IgG1 isotype control antibody (control Ab). Relative surface expression as expressed by mean fluorescence intensity was normalized for control HUVECs in the same experiment. Results are the mean (±SE) from three experiments. […]"}, "fibronectin": {"test_system": "fibronectin", "assay": "Surface expression of fibronectin in CMV-infected HUVECs", "details": "late times after infection", "excerpt": "TGF-β1 is a potent fibrotic factor responsible for the synthesis of ECM, and profibrotic TGF-β1 responses are induced primarily via ALK5/Smad3 signal transduction in normal fibroblasts (Ishida et al., J Invest Dermatol, 126:1733-1744 (2006)). TGF-β1 also potently promotes the synthesis and deposition of ECM in endothelial cells (Pepper, M. S., Cytokine Growth Factor Rev, 8:21-43 (1997)). […] Therefore, it was investigated in the present example whether CMV-activated TGF-β1 could increase ECM production and whether blocking TGF-β1 activation could prevent the effect. […] To evaluate the effect of inhibition of activation of TGF-β1 on CMV-induced profibrotic response, infected cells were treated with anti-TGF-β (1D11) and anti-αvβ6 (3G9) antibodies for 7 days. […] In addition, surface expression of fibronectin was increased at late times after infection, and was reduced by the ALK5 kinase inhibitor."}}}
{"smiles": "O[C@H](CS)[C@H](O)CS", "note": "(racemic) [DTT, dithiothreitol]", "values": [{"measurement": "CEACAM1 expression", "setting": "CEACAM1", "value": "reduce CEACAM1 expression"}]}
{"smiles": "C[S+](C)[O-]", "note": "[DMSO, dimethyl sulfoxide]", "values": [{"measurement": "CEACAM1 expression", "setting": "CEACAM1", "value": "reduce CEACAM1 expression"}]}
{"smiles": "O=C(O)P(=O)(O)O", "note": "[Foscarnet]", "values": [{"measurement": "induction of TMLC luciferase activity (active TGF-β)", "setting": "[1]", "value": "strongly suppressed"}, {"measurement": "induction of integrin β6", "setting": "integrin β6", "value": "blocked induction of integrin β6"}]}
{"smiles": "NC(=O)c1ccc(-c2nc(-c3ccc4c(c3)OCO4)c(-c3ccccn3)[nH]2)cc1", "note": "[SB431542]", "values": [{"measurement": "Smad3 phosphorylation", "setting": "Smad3 phosphorylation", "value": "prevented Smad3 phosphorylation"}, {"measurement": "surface expression of type IV collagen", "setting": "type IV collagen", "value": "inhibitory effect"}, {"measurement": "surface expression of fibronectin", "setting": "fibronectin", "value": "reduced"}, {"measurement": "induction of integrin β6", "setting": "integrin β6", "value": "nearly abolish it at high concentrations"}]}
{"smiles": "O=C(O)CP(=O)(O)O", "note": "[phosphonoacetic acid]", "values": [{"measurement": "induction of TMLC luciferase activity (active TGF-β)", "setting": "[1]", "value": "strongly suppressed"}, {"measurement": "induction of integrin β6", "setting": "integrin β6", "value": "blocked induction of integrin β6"}]}
{"smiles": "OCCS", "note": "[β-mercaptoethanol]", "values": [{"measurement": "CEACAM1 expression", "setting": "CEACAM1", "value": "reduce CEACAM1 expression"}]}
